Key:
BRD4 BD2 = molecular target: T1, BRD4 BD2 (Homo sapiens, UniProt O60885); test: AlphaScreen binding assay, BRD4 Bromodomain 2
T1 construct: made in house
Outline: (§1)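 Compound dilution series were mixed with His-tagged BRD4 bromodomain and biotinylated tetra-acetylated H4 (1-21) peptide at pH 7.3 (BD1 and peptide at 50 nM, BD2 and peptide at 100 nM). Donor and acceptor beads were then added, and plates were equilibrated at least 1 h before reading. IC50 values were fitted with a four-parameter logistic model.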

BRD4 BD1 = molecular target: T2, BRD4 BD1 (Homo sapiens, UniProt O60885); test: AlphaScreen binding assay, BRD4 Bromodomain 1
T2 construct: made in house
Outline: as §1

| Structure (SMILES) | IC50 (BRD4 BD2) [nM] | IC50 (BRD4 BD1) [µM] |
| --- | --- | --- |
| COc1cc(Cl)ccc1S(=O)(=O)N1C[C@H](C)N(C(C)=O)c2ccccc21 [Example I-959] | > 500 | > 10 |
| CC(=O)N1c2ccc(-c3ccc(N4CCCC4)cc3)cc2N(C(=O)c2ccco2)C[C@@H]1C [Example I-298] | 50 to 500 | 1 to 10 |
| CC(=O)N1c2ccc(-c3ccc(S(C)(=O)=O)cc3)cc2N(C(=O)Nc2cccc(Cl)c2)C[C@@H]1C [Example I-969] | > 500 | > 10 |
| CC(C)OC(=O)N1C[C@H](C)N(C(=O)C2CC2)c2ccc(-c3ccc(C(=O)NCCN)cc3)cc21 [Example I-481] | > 500 | 0.1 to 1 |
| CC(=O)N1c2ccc(-c3ccc(Oc4ccccc4)cc3)cc2N(C(=O)c2ccco2)C[C@@H]1C [Example I-813] | 50 to 500 | 1 to 10 |
| CC(=O)N1c2ccccc2N(C(=O)CC2CCN(S(C)(=O)=O)CC2)C[C@@H]1C [Example I-762] | > 500 | > 10 |
| COCCC(=O)N1C[C@H](C)N(C(C)=O)c2ccccc21 [Example I-700] | > 500 | > 10 |
| CC(=O)N1c2ccc(-c3ccc4[nH]ccc4n3)cc2N(C(=O)c2ccco2)CC1C (stereo not drawn) [Example I-397] | 50 to 500 | 1 to 10 |
| CCOC(=O)N1C[C@H](C)N(C(=O)OC)c2ccc(-c3cnn(C4CC4)c3)cc21 [Example I-380] | > 500 | 0.1 to 1 |
| CC(=O)N1c2ccccc2N(C(=O)CC2CCCC2)C[C@@H]1C [Example I-713] | > 500 | > 10 |
| COC(=O)N1c2ccc(-c3cnn(C(C)(C)CO)c3)cc2N(C(=O)Oc2cccnc2)C[C@@H]1C [Example I-1285] | 50 to 500 | 1 to 10 |
| CC(=O)N1c2ccccc2N(C(=O)c2cc3ccccc3o2)C[C@@H]1C [Example I-751] | > 500 | > 10 |
| CC(=O)N1c2ccccc2N(C(=O)COc2ccc(F)cc2)C[C@@H]1C [Example I-735] | > 500 | > 10 |
| CC(=O)N1c2ccccc2N(Cc2cccc(C(F)(F)F)c2)C[C@@H]1C [Example I-899] | > 500 | > 10 |
| COC(=O)N1c2ccc(-c3cn(C)nn3)cc2N(C(=O)C2CC2)C[C@@H]1C [Example I-464] | 50 to 500 | 1 to 10 |
| COc1ccc(S(=O)(=O)N2C[C@H](C)N(C(C)=O)c3ccccc32)c(OC)c1 [Example I-950] | > 500 | > 10 |
| CC(=O)N1c2ccc(-c3cnn(C)c3C)cc2N(C(=O)c2ccco2)C[C@@H]1C [Example I-270] | 50 to 500 | 1 to 10 |
| CC(=O)N1c2ccccc2N(C(=O)Cc2ccc3c(c2)OCO3)C[C@@H]1C [Example I-709] | > 500 | > 10 |
| C[C@H]1CN(C(=O)C2CC2)c2cc(-c3ccc(C(=O)NCCN)cc3)ccc2N1C(=O)C1CC1 [Example I-452] | 50 to 500 | 1 to 10 |

| Structure (SMILES) | IC50 (BRD4 BD2) [nM] | IC50 (BRD4 BD1) [µM] |
| --- | --- | --- |
| CC(=O)N1c2ccc(-c3ccc(N(C)S(C)(=O)=O)cc3)cc2N(C(=O)c2ccco2)C[C@@H]1C [Example I-492] | < 50 | 0.1 to 1 |
| CC(=O)N1c2ccccc2N(C(=O)c2ccncc2)C[C@@H]1C [Example I-704] | > 500 | > 10 |
| CC(=O)N1c2ccccc2N(C(=O)c2cc(C)c(C)o2)C[C@@H]1C [Example I-750] | > 500 | > 10 |
| CC(=O)N1c2ccc(-c3ccc(S(C)(=O)=O)cc3)cc2N(c2nccc(-c3ccccc3)n2)C[C@@H]1C [Example I-49, (S)-1-(2-methyl-6-(4-(methylsulfonyl)phenyl)-4-(4-phenylpyrimidin-2-yl)-3,4-dihydroquinoxalin-1(2H)-yl)ethanone] | > 500 | 1 to 10 |
| CC(=O)N1c2ccc(-c3ncco3)cc2N(C(=O)c2ccco2)C[C@@H]1C [Example I-491] | 50 to 500 | 1 to 10 |
| CC(=O)N1c2ccc(-c3cnn(C4COC4)c3)cc2N(C(=O)CC2CCCC2)C[C@@H]1C [Example I-111, (S)-1-(4-acetyl-3-methyl-7-(1-(oxetan-3-yl)-1H-pyrazol-4-yl)-3,4-dihydroquinoxalin-1(2H)-yl)-2-cyclopentylethanone] | 50 to 500 | 1 to 10 |
| CC(=O)N1c2ccc(-c3ccc(S(C)(=O)=O)cc3)cc2N(C(=O)C(C)(C)C)C[C@@H]1C [Example I-243] | > 500 | > 10 |
| CC(=O)N1c2ccccc2N(Cc2ccc(Oc3ccccc3)cc2)C[C@@H]1C [Example I-919] | > 500 | > 10 |
| C[C@H]1CN(C(=O)c2ccco2)c2cc(-c3ccc(S(C)(=O)=O)cc3)ccc2N1C(=O)C(F)(F)F [Example I-361] | > 500 | > 10 |
| CC(=O)N1c2ccccc2N(C(=O)c2ccc(C(C)C)cn2)C[C@@H]1C [Example I-728] | > 500 | > 10 |
| CC(=O)N1c2ccc(-c3cnn(C4COC4)c3)cc2N(C(=O)C(C)(C)Cl)C[C@@H]1C [Example I-115, (S)-1-(4-acetyl-3-methyl-7-(1-(oxetan-3-yl)-1H-pyrazol-4-yl)-3,4-dihydroquinoxalin-1(2H)-yl)-2-chloro-2-methylpropan-1-one] | > 500 | > 10 |
| CC(=O)N1c2ccccc2N(C(=O)c2csc(C)n2)C[C@@H]1C [Example I-705] | > 500 | > 10 |
| CC(=O)N1c2ccc(C(=O)N3CCCC3)cc2N(C(=O)c2ccco2)C[C@@H]1C [Example I-101, (S)-1-(4-(furan-2-carbonyl)-2-methyl-6-(pyrrolidine-1-carbonyl)-3,4-dihydroquinoxalin-1(2H)-yl)ethanone] | > 500 | > 10 |
| CC(=O)N1c2ccc(-c3ccc(Cl)cc3)cc2N(C(=O)c2ccco2)C[C@@H]1C [Example I-805] | 50 to 500 | 1 to 10 |
| COC(=O)N1c2ccc(-c3cnn(CCO)c3)cc2N(C(=O)Oc2cccnc2)C[C@@H]1C [Example I-1282] | > 500 | 1 to 10 |
| CC(=O)N1c2ccc(-c3cccc(-c4noc(C)n4)c3)cc2N(C(=O)c2ccco2)C[C@@H]1C [Example I-402] | < 50 | 1 to 10 |
| COC(=O)N1c2ccc(-c3cnn(CCS(C)(=O)=O)c3)cc2N(C(=O)Oc2cccnc2)C[C@@H]1C [Example I-1280] | 50 to 500 | 1 to 10 |
| CC(=O)N1c2ccccc2N(C(=O)C2CCCC2)C[C@@H]1C [Example I-714] | > 500 | > 10 |
| CC(=O)N1c2ccc(-c3cnn(-c4ccccc4)c3)cc2N(C(=O)OC(C)C)C[C@@H]1C [Example I-334] | > 500 | 1 to 10 |

| Structure (SMILES) | IC50 (BRD4 BD2) [nM] | IC50 (BRD4 BD1) [µM] |
| --- | --- | --- |
| CC(=O)N1c2ccccc2N(C(=O)[C@H]2COc3ccccc3O2)C[C@@H]1C [Example I-737] | > 500 | > 10 |
| COc1ccccc1CNC(=O)N1C[C@H](C)N(C(C)=O)c2ccc(-c3ccc(S(C)(=O)=O)cc3)cc21 [Example I-972] | > 500 | > 10 |
| CC(=O)N1c2ccc(-c3ccc(CS(N)(=O)=O)cc3)cc2N(C(=O)c2ccco2)C[C@@H]1C [Example I-418] | < 50 | 1 to 10 |
| CC(=O)N1c2ccc(-c3cnn(CC(=O)N(C)C4CC4)c3)cc2N(C(=O)C2CC2)C[C@@H]1C [Example I-658] | 50 to 500 | 1 to 10 |
| COC(=O)N1c2ccc(-c3ccc(N(C)S(C)(=O)=O)cc3)cc2N(C(=O)Oc2cccnc2)C[C@@H]1C [Example I-1293] | > 500 | 1 to 10 |
| CC(=O)N1c2ccc(-c3ccc4c(c3)n(C)c(=O)n4C)cc2N(C(=O)c2ccco2)C[C@@H]1C [Example I-395] | < 50 | 0.1 to 1 |
| CC(=O)N1c2ccc(C(=O)c3ccccc3)cc2N(C(=O)c2ccco2)C[C@@H]1C [Example I-408] | > 500 | 1 to 10 |
| CC(=O)N1c2ccccc2N(C(=O)c2cc3ccccc3n2C)C[C@@H]1C [Example I-748] | > 500 | > 10 |
| COc1cc(-c2ccc3c(c2)N(C(=O)c2ccco2)C[C@H](C)N3C(C)=O)ccc1F [Example I-828] | 50 to 500 | 1 to 10 |
| CC(=O)N1c2ccccc2N(Cc2ccc(-c3ccccc3)cc2)C[C@@H]1C [Example I-916] | > 500 | > 10 |
| CC(=O)N1c2ccccc2N(CC2CCCCC2)C[C@@H]1C [Example I-910] | > 500 | > 10 |
| CC(=O)N1c2ccccc2N(C(=O)c2cc(C)n(C)n2)C[C@@H]1C [Example I-755] | > 500 | > 10 |
| CC(=O)N1c2ccc(-c3cnn(C4COC4)c3)cc2N(C(=O)CC2CC2)C[C@@H]1C [Example I-107, (S)-1-(4-acetyl-3-methyl-7-(1-(oxetan-3-yl)-1H-pyrazol-4-yl)-3,4-dihydroquinoxalin-1(2H)-yl)-2-cyclopropylethanone] | 50 to 500 | 1 to 10 |
| COC(=O)N1c2ccc(-c3ccc(CS(N)(=O)=O)cc3)cc2N(C(=O)OC(C)C)C[C@@H]1C [Example I-487] | > 500 | 0.1 to 1 |
| COc1cccc(NC(=O)N2C[C@H](C)N(C(C)=O)c3ccc(-c4ccc(S(C)(=O)=O)cc4)cc32)c1 [Example I-967] | 50 to 500 | > 10 |
| COC(=O)N1c2ccc(-c3ccc4c(c3)CCN4S(C)(=O)=O)cc2N(C(=O)Oc2ccccn2)C[C@@H]1C [Example I-1329] | 50 to 500 | 1 to 10 |
| CC(=O)N1c2ccccc2N(C(=O)c2ccc(Oc3ccccc3)cc2)C[C@@H]1C [Example I-742] | > 500 | > 10 |
| CC(=O)N1c2ccc(-c3cnn(C4CC4)c3)cc2N(C(=O)Oc2cncc3ccccc23)C[C@@H]1C [Example I-525] | 50 to 500 | 1 to 10 |
| C[C@H]1CN(C(=O)c2ccco2)c2cc(-c3ccc(S(C)(=O)=O)cc3)ccc2N1C(=O)c1ccno1 [Example I-375] | > 500 | > 10 |
